# Target: T1, human histamine H3 receptor (Homo sapiens, UniProt Q9Y5N1)
# T1 construct: expressed in transfected cells; membranes prepared from cell pellets
# Assay: [3H]-N-methylhistamine binding to membranes of histamine H3 receptor-expressing SK-N-MC cells
# Conditions: 0.8 nM [3H]-N-methylhistamine, 45 min at 25° C., SK-N-MC cell membranes; Ki=(IC50)/(1+([L]/(Kd)); read-out: Ki
# Description: Thus in the present invention receptor binding was determined using the human histamine H3 receptor (See Lovenberg et al Mol. Pharmacol. 1999, 1107). Screening using the human receptor is particularly important for the identification of new therapies for the treatment of human disease. Conventional binding assays for example are determined using rat synaptosomes (Garbarg et al J. Pharmacol. Exp. Ther. 1992, 263, 304), rat cortical membranes (West et al Mol. Pharmacol. 1990, 610), and guinea pig brain (Korte et al Biochem. Biophys. Res. Commun. 1990, 978).
# Transfection of Cells with Human Histamine Receptor
# A 10 cm tissue culture dish with a confluent monolayer of SK-N-MC cells was split two days prior to transfection. Using sterile technique the media was removed and the cells were detached from the dish by the addition of trypsin. One fifth of the cells were then placed onto a new 10 cm dish. Cells were grown in a 37° C. incubator with 5% CO2 in Minimal Essential Media Eagle with 10% Fetal Bovine Serum. After two days cells were approximately 80% confluent. These were removed from the dish with trypsin and pelleted in a clinical centrifuge. The pellet was then re-suspended in 400 μL complete media and transferred to an electroporation cuvette with a 0.4 cm gap between the electrodes (Bio-Rad #165–2088). One microgram of supercoiled H3 receptor cDNA was added to the cells and mixed. The voltage for the electroporation was set at 0.25 kV, the capacitance was set at 960 μF. After electroporation the cells were diluted into 10 mL complete media and plated onto four 10 cm dishes. Because of the variability in the efficiency of electroporation, four different concentrations of cells were plated. The ratios used were; 1:20, 1:10, 1:5, with the remainder of the cells being added to the fourth dish. The cells were allowed to recover for 24 hours before adding the selection media (complete media with 600 μg/mL G418). After 10 days dishes were analyzed for surviving colonies of cells. Dishes with well isolated colonies were used. Cells from individual colonies were isolated and tested. SK-N-MC cells were used because they give efficient coupling for inhibition of adenylate cyclase. The clones that gave the most robust inhibition of adenylate cyclase in response to histamine were used for further study.
# [^3H]-N-methylhistamine Binding
# Cell pellets from histamine H3 receptor-expressing SK-N-MC cells were homogenized in 20 mM TrisHCI/0.5 mM EDTA. Supernatants from a 800 g spin were collected, recentrifuged at 30,000 g for 30 minutes. Pellets were re-homogenized in 50 mM Tris/5 mM EDTA (pH 7.4). Membranes were incubated with 0.8 nM [^3H]-N-methylhistamine plus/minus test compounds for 45 min at 25° C. and harvested by rapid filtration over GF/C glass fiber filters (pretreated with 0.3% polyethylenimine) followed by four washes with ice cold buffer. Filters were dried, added to 4 mL scintillation cocktail and then counted on a liquid scintillation counter. Non-specific binding was defined with 10 μM histamine. The pKi values were calculated based on a Kd of 800 pM and a ligand concentration ([L]) of 800 pM according to the formula: Ki=(IC50)/(1+([L]/(Kd))
# T1 sequence (Q9Y5N1 whole entry): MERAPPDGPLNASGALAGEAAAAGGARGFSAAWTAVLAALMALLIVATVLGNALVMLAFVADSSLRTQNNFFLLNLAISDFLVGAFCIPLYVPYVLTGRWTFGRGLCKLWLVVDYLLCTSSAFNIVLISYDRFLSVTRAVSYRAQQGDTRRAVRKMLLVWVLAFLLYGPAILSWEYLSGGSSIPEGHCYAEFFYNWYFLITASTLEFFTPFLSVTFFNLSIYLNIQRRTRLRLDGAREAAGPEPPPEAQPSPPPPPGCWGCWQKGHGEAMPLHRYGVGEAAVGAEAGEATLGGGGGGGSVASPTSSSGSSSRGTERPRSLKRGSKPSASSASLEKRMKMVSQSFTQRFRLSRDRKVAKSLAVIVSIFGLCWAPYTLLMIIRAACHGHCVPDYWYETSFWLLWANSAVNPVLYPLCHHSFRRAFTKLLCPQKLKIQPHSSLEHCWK
row,Ki,SMILES
1,1.6 nM,"COc1ccc(CCN(C)Cc2ccc(OCCCN3CCCCC3)cc2)cc1OC [Example 82, [2-(3,4-Dimethoxy-phenyl)-ethyl]-methyl-[4-(3-piperidin-1-yl-propoxy)-benzyl]-amine]"
2,3.9 nM,"OCCC1CCCCN1CCCOc1ccc(CN2CCCCC2)cc1 (stereo not drawn) [Example 69, 2-{1-[3-(4-Piperidin-1-ylmethyl-phenoxy)-propyl]-piperidin-2-yl}-ethanol]"
3,1 nM,"NC(=O)C1CCN(Cc2ccc(OCCCN3CCCCC3)cc2)CC1 [Example 57, 1-[4-(3-Piperidin-1-yl-propoxy)-benzyl]-piperidine-4-carboxylic acid amide]"
4,2 nM,"c1cncc(C2CCCCN2Cc2ccc(OCCCN3CCCCC3)cc2)c1 (stereo not drawn) [Example 61, 1-[4-(3-Piperidin-1-yl-propoxy)-benzyl]-1,2,3,4,5,6-hexahydro-[2,3′]bipyridinyl]"
5,1 nM,"CN(CCc1ccccn1)Cc1ccc(OCCCN2CCCCC2)cc1 [Example 78, Methyl-[4-(3-piperidin-1-yl-propoxy)-benzyl]-(2-pyridin-2-yl-ethyl)-amine]"
6,0.5 nM,"c1cc(-n2nnnc2SCCCN2CCCCC2)ccc1OCCCN1CCCCC1 [Example 32, 1-(3-{4-[5-(3-Piperidin-1-yl-propylsulfanyl)-tetrazol-1-yl]-phenoxy}-propyl)-piperidine]"
7,0.3 nM,"CC(C)N1CCN(c2ccc(OCCCN3CCCCC3)cc2)CC1 [Example 26, 1-Isopropyl-4-[4-(3-piperidin-1-yl-propoxy)-phenyl]-piperazine]"
8,1 nM,"c1ccc2c(c1)CCC2NCc1ccc(OCCCN2CCCCC2)cc1 (stereo not drawn) [Example 47, Indan-1-yl-[4-(3-piperidin-1-yl-propoxy)-benzyl]-amine]"
9,7 nM,"c1ccc(NCc2ccc(OCCCN3CCCCC3)cc2)cc1 [Example 62, Phenyl-[4-(3-piperidin-1-yl-propoxy)-benzyl]-amine]"
10,0.5 nM,"CN(Cc1ccccc1)C1CCN(Cc2ccc(OCCCN3CCCCC3)cc2)CC1 [Example 43, Benzyl-methyl-{1-[4-(3-piperidin-1-yl-propoxy)-benzyl]-piperidin-4-yl}-amine]"
11,0.4 nM,"c1cc(OCCN2CCCCC2)ccc1OCCCN1CCCCC1 [Example 30, 1-{3-[4-(2-Piperidin-1-yl-ethoxy)-phenoxy]-propyl}-piperidine]"
12,0.7 nM,"c1cc(OCCCN2CCCCC2)ccc1CN1CCOCC1 [Example 94, 4-[4-(3-Piperidin-1-yl-propoxy)-benzyl]-morpholine]"
13,1.7 nM,"CN(CCc1ccccc1)Cc1ccc(OCCCN2CCCCC2)cc1 [Example 83, Methyl-phenethyl-[4-(3-piperidin-1-yl-propoxy)-benzyl]-amine]"
14,140 nM,"CCN(CC)CCOc1ccc(CN2CCCCC2)cc1 [Example 81, Diethyl-[2-(4-piperidin-1-ylmethyl-phenoxy)-ethyl]-amine]"
15,89 nM,"Clc1ccc(NCc2cccc(OCCCN3CCCCC3)c2)cc1 [Example 68, (4-Chloro-phenyl)-[3-(3-piperidin-1-yl-propoxy)-benzyl]-amine]"
16,1500 nM,"Clc1ccc(NCc2ccccc2OCCCN2CCCCC2)cc1 [Example 67, (4-Chloro-phenyl)-[2-(3-piperidin-1-yl-propoxy)-benzyl]-amine]"
17,5 nM,"c1cc(OCCN2CCCCC2)ccc1CN1CCCCC1 [Example 20, 1-[2-(4-Piperidin-1-ylmethyl-phenoxy)-ethyl]-piperidine]"

row,Ki,SMILES
1,1.9 nM,"c1ccc(CCCC2CCN(Cc3ccc(OCCCN4CCCCC4)cc3)CC2)cc1 [Example 58, 1-[4-(3-Piperidin-1-yl-propoxy)-benzyl]-4-(3-phenyl-propyl)-piperidine]"
2,1.1 nM,"CN1CCC(N(C)Cc2ccc(OCCCN3CCCCC3)cc2)CC1 [Example 76, Methyl-(1-methyl-piperidin-4-yl)-[4-(3-piperidin-1-yl-propoxy)-benzyl]-amine]"
3,1 nM,"c1cc(OCCCN2CCCCC2)ccc1CNC1CCCCC1 [Example 49, Cyclohexyl-[4-(3-piperidin-1-yl-propoxy)-benzyl]-amine]"
4,0.4 nM,"CN1CCCC1c1ccc(OCCCN2CCCCC2)cc1 (stereo not drawn) [Example 37, 1-{3-[4-(1-Methyl-pyrrolidin-2-yl)-phenoxy]-propyl}-piperidine]"
5,0.5 nM,"c1cc(OCCCN2CCCCC2)ccc1OCCCN1CCCCC1 [Example 31, 1-{3-[4-(3-Piperidin-1-yl-propoxy)-phenoxy]-propyl}-piperidine]"
6,1.6 nM,"C(=C\c1ccccc1)/CN1CCN(Cc2ccc(OCCCN3CCCCC3)cc2)CC1 [Example 75, 1-(3-Phenyl-allyl)-4-[4-(3-piperidin-1-yl-propoxy)-benzyl]-piperazine]"
7,4 nM,"c1ccc2c(c1)CCN(Cc1ccc(OCCN3CCCCC3)cc1)C2 [Example 21, 2-[4-(2-Piperidin-1-yl-ethoxy)-benzyl]-1,2,3,4-tetrahydro-isoquinoline]"
8,1 nM,"c1cc(OCCCN2CCCCC2)ccc1CN1CCC2(CC1)OCCO2 [Example 54, 8-[4-(3-Piperidin-1-yl-propoxy)-benzyl]-1,4-dioxa-8-aza-spiro[4.5]decane]"
9,5.7 nM,"CN(C)CCCOc1ccc(CN2CCCCC2)cc1 [Example 40, Dimethyl-[3-(4-piperidin-1-ylmethyl-phenoxy)-propyl]-amine]"
10,0.8 nM,"c1ccc(NC2CCN(Cc3ccc(OCCCN4CCCCC4)cc3)CC2)nc1 [Example 41, {1-[4-(3-Piperidin-1-yl-propoxy)-benzyl]-piperidin-4-yl}-pyridin-2-yl-amine]"
11,2.5 nM,"c1cc(OCCCN2CCCCC2)ccc1CN1CCCCCCCCCCCC1 [Example 45, 1-[4-(3-Piperidin-1-yl-propoxy)-benzyl]-azacyclotridecane]"
12,1.8 nM,"C(=C1CCN(Cc2cccc(OCCCN3CCCCC3)c2)CC1)c1ccccc1 [Example 71, 1-{3-[3-(4-Benzylidene-piperidin-1-ylmethyl)-phenoxy]-propyl}-piperidine]"
13,5 nM,"c1ccc(NCc2ccc(OCCCN3CCCCC3)cc2)nc1 [Example 84, [4-(3-Piperidin-1-yl-propoxy)-benzyl]-pyridin-2-yl-amine]"
14,1.3 nM,"c1ccc(CN2CCN(c3ccc(OCCCN4CCCC4)cc3)CC2)cc1 [Example 24, 1-Benzyl-4-[4-(3-pyrrolidin-1-yl-propoxy)-phenyl]-piperazine]"
15,2 nM,"CC(C)N1CCN(Cc2ccc(OCCCN3CCCCC3)cc2)CC1 [Example 88, 1-Isopropyl-4-[4-(3-piperidin-1-yl-propoxy)-benzyl]-piperazine]"
16,1.5 nM,"c1ccc(-c2ccc(OCCCN3CCCCC3)cc2)c(CN2CCCCC2)c1 [Example 34, 1-[3-(2′-Piperidin-1-ylmethyl-biphenyl-4-yloxy)-propyl]-piperidine]"

row,SMILES,Ki
1,"c1ccc(N2CCN(Cc3ccc(OCCCN4CCCCC4)cc3)CC2)cc1 [Example 91, 1-Phenyl-4-[4-(3-piperidin-1-yl-propoxy)-benzyl]-piperazine]",1 nM
2,"OC1(c2ccccc2)CCN(Cc2ccc(OCCCN3CCCCC3)cc2)CC1 [Example 87, 4-Phenyl-1-[4-(3-piperidin-1-yl-propoxy)-benzyl]-piperidin-4-ol]",1 nM

# Same assay, conditions: 0.8 nM [3H]-N-methylhistamine, 45 min at 25° C., SK-N-MC cell membranes; […]; read-out: Ki
row,SMILES,Ki
1,"OCCC1CCN(Cc2ccc(OCCCN3CCCCC3)cc2)CC1 [Example 46, 2-{1-[4-(3-Piperidin-1-yl-propoxy)-benzyl]-piperidin-4-yl}-ethanol]",1.2 nM
2,"CC(C)N1CCC(O)(c2ccc(OCCCN3CCCCC3)cc2)CC1 [Example 77, 1-Isopropyl-4-[4-(3-piperidin-1-yl-propoxy)-phenyl]-piperidin-4-ol]",2.9 nM
3,"OC1(c2ccc(Cl)cc2)CCN(Cc2ccc(OCCCN3CCCCC3)cc2)CC1 [Example 86, 4-(4-Chloro-phenyl)-1-[4-(3-piperidin-1-yl-propoxy)-benzyl]-piperidin-4-ol]",1.8 nM

# Same assay, conditions: 0.8 nM [3H]-N-methylhistamine, 45 min at 25° C., SK-N-MC cell membranes; unit given as nm; read-out: Ki
row,Ki,SMILES
1,4.8 nM,"c1ccc2c(c1)CCCN2Cc1ccc(OCCCN2CCCCC2)cc1 [Example 95, 1-[4-(3-Piperidin-1-yl-propoxy)-benzyl]-1,2,3,4-tetrahydro-quinoline]"
